This is an account of results in patent publication US20050031557A1, “Oral administration of beta-carotene, lycopene and lutein for human skin protection” (priority 1999, published 2005).

The assay relates to healthy skin of light type II. In words: Photoprotection study in volunteers with oral carotinoid supplementation over 12 weeks. It counts as in vivo, human. How it is done:
The carotinoid absorption and photoprotection studies were carried out using a panel of 36 volunteers with healthy skin of light type II (Fitzpatrick & Pathak test). The starting values for each volunteer were determined at the beginning of the 12-week study. An interim study was conducted after 6 weeks and the final study after 12 weeks. The volunteers were divided into three groups of twelve who received the following daily doses: • 1st group: 25 mg Betatene® (corresponds to 24 mg β-carotene) • 2nd group: 8.3 mg Betatene® (corresponds to 8 mg β-carotene), 8 mg lycopene, 8 mg lutein (Xangold®) • 3rd group: placebo capsules.
The carotinoids were administered in soft gelatine capsules with 140 mg soybean oil.
The concentration of β-carotene, lycopene and lutein in the skin was determined by reflection spectrometry which was carried out on an area of 1 cm^2 of the forehead, the back of the hand, the palm of the hand, the inside of the lower arm and the back. The change in color of the skin during supplementation was differentiated by a Minolta chromameter (L, a, b system) into reddening of the skin (a values), yellow component (b values) and lightness of the skin (L values). The concentration of β-carotene, lycopene and lutein in the serum was determined by high-pressure liquid chromatography (HPLC). […]

Regarding `CC1=C(/C=C/C(C)=C/C=C/C(C)=C/C=C/C=C(C)/C=C/C=C(C)/C=C/C2=C(C)CCCC2(C)C)C(C)(C)CCC1` [β-carotene], the “photoprotection of the skin in relation to the blank value (in words)” value (12 weeks of daily oral dosing, versus placebo group 3) is “doubles the photoprotection of the skin”. The molecule also yielded a Photoprotection (average of 12 volunteers per group after 12 weeks of daily oral dosing in soft gelatine capsules with soybean oil, relative to blank value (group 3, no carotinoids = 100), group 1: 24 mg β-carotene, group 2: 8 mg each of β-carotene, lycopene, lutein) of 200 %-rel.
